In patent US20230085307A1, “PYRIDAZINONE COMPOUND AND HERBICIDE” (NISSAN CHEMICAL CORPORATION, priority 2019, published 2023):

Key:
rice flat sedge = assay: Test Example 3: herbicidal effect by foliage application, Wagner pot (Table 18, symbol E); type: in vivo, rice flat sedge (Cyperus iria); settings: amount of applied herbicide 320 g/ha
Outline: (§1)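 Plants were sown in alluvial soil held under 0.1–0.5 cm standing water and grown 14 days in a greenhouse at 25–30 °C. An emulsifiable formulation, water-diluted to the set dose, was then sprayed onto the foliage, and effects were scored three weeks later using previously defined criteria.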

Chinese sprangletop = assay: Test Example 3: herbicidal effect by foliage application, Wagner pot (Table 18, symbol D); type: in vivo, chinese sprangletop (Leptochloa chinensis); settings: amount of applied herbicide 320 g/ha
Outline: as §1

green foxtail [1] = assay: Test Example 4: herbicidal effect by soil treatment (Table 19, symbol G); type: in vivo, green foxtail (Setaria viridis); settings: amount of applied herbicide 320 g/ha
Outline: (§2)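 Seeds were sown in sterilized diluvial soil and covered with about 1.5 cm of soil. An emulsion formulation diluted with water to a predetermined herbicide amount was sprayed evenly onto the soil surface. Plants grew in a greenhouse at 25° C. to 30° C., and the effect was scored three weeks after application using criteria from an earlier test.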

lambsquarters [2] = assay: Test Example 5: herbicidal effect by foliage application, plastic box (Table 20, symbol O); type: in vivo, lambsquarters (Chenopodium album); settings: foliage application, AAH 320 g/ha, evaluated three weeks after application
Outline: (§3)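 Plants sown in sterilized diluvial soil and grown 14 days in a greenhouse at 25° C to 30° C, then sprayed on the foliage with the compound's emulsion diluted in water to a predetermined herbicide amount. Injury to weeds and crops scored three weeks after application on a visual rating scale.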

wild oat [3] = assay: Test Example 4: herbicidal effect by soil treatment (Table 19, symbol I); type: in vivo, wild oat (Avena fatua); settings: amount of applied herbicide 320 g/ha
Outline: as §2

southern crabgrass [4] = assay: Test Example 5: herbicidal effect by foliage application, plastic box (Table 20, symbol F); type: in vivo, southern crabgrass (Digitaria ciliaris); settings: foliage application, AAH 320 g/ha, evaluated three weeks after application
Outline: as §3

persian speedwell [5] = assay: Test Example 4: herbicidal effect by soil treatment (Table 19, symbol R); type: in vivo, Persian speedwell (Veronica persica); settings: amount of applied herbicide 320 g/ha
Outline: as §2

redroot pigweed [6] = assay: Test Example 4: herbicidal effect by soil treatment (Table 19, symbol N); type: in vivo, redroot pigweed (Amaranthus retroflexus); settings: amount of applied herbicide 320 g/ha
Outline: as §2

chickweed [7] = assay: Test Example 5: herbicidal effect by foliage application, plastic box (Table 20, symbol P); type: in vivo, common chickweed (Stellaria media); settings: foliage application, AAH 320 g/ha, evaluated three weeks after application
Outline: as §3

southern crabgrass [8] = assay: Test Example 4: herbicidal effect by soil treatment (Table 19, symbol F); type: in vivo, southern crabgrass (Digitaria ciliaris); settings: amount of applied herbicide 320 g/ha
Outline: as §2

barnyard grass [9] = assay: Test Example 4: herbicidal effect by soil treatment (Table 19, symbol H); type: in vivo, barnyard grass (Echinochloa crus-galli); settings: amount of applied herbicide 320 g/ha
Outline: as §2

windgrass [10] = assay: Test Example 4: herbicidal effect by soil treatment (Table 19, symbol L); type: in vivo, windgrass (Apera spica-venti); settings: amount of applied herbicide 320 g/ha
Outline: as §2

barnyard grass [11] = assay: Test Example 5: herbicidal effect by foliage application, plastic box (Table 20, symbol H); type: in vivo, barnyard grass (Echinochloa crus-galli); settings: foliage application, AAH 320 g/ha, evaluated three weeks after application
Outline: as §3

late watergrass = assay: Test Example 1: herbicidal activity, application before weed generation under submerged conditions (Table 16, symbol A); type: in vivo, late watergrass (Echinochloa oryzicola); settings: 320 g/ha applied herbicide
Outline: (§4)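 Alluvial soil was flooded to 4 cm depth, weed seeds were sown mixed and 2.5-leaf rice seedlings were transplanted. On sowing day, the compound's emulsion, diluted in water to a set dose, was applied to the water surface. Plants grew at 25–30 °C and were scored 0–5 after three weeks.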

blackgrass [12] = assay: Test Example 4: herbicidal effect by soil treatment (Table 19, symbol J); type: in vivo, blackgrass (Alopecurus myosuroides); settings: amount of applied herbicide 320 g/ha
Outline: as §2

oval-leafed pondweed = assay: Test Example 1: herbicidal activity, application before weed generation under submerged conditions (Table 16, symbol C); type: in vivo, oval-leafed pondweed (Monochoria vaginalis); settings: 320 g/ha applied herbicide
Outline: as §4

Japanese bulrush = assay: Test Example 1: herbicidal activity, application before weed generation under submerged conditions (Table 16, symbol B); type: in vivo, Japanese bulrush (Schoenoplectus juncoides); settings: 320 g/ha applied herbicide
Outline: as §4

velvetleaf [13] = assay: Test Example 4: herbicidal effect by soil treatment (Table 19, symbol M); type: in vivo, velvetleaf (Abutilon theophrasti); settings: amount of applied herbicide 320 g/ha
Outline: as §2

green foxtail [14] = assay: Test Example 5: herbicidal effect by foliage application, plastic box (Table 20, symbol G); type: in vivo, green foxtail (Setaria viridis); settings: foliage application, AAH 320 g/ha, evaluated three weeks after application
Outline: as §3

Italian ryegrass [15] = assay: Test Example 4: herbicidal effect by soil treatment (Table 19, symbol K); type: in vivo, Italian ryegrass (Lolium multiflorum); settings: amount of applied herbicide 320 g/ha
Outline: as §2

blackgrass [16] = assay: Test Example 5: herbicidal effect by foliage application, plastic box (Table 20, symbol J); type: in vivo, blackgrass (Alopecurus myosuroides); settings: foliage application, AAH 320 g/ha, evaluated three weeks after application
Outline: as §3

velvetleaf [17] = assay: Test Example 5: herbicidal effect by foliage application, plastic box (Table 20, symbol M); type: in vivo, velvetleaf (Abutilon theophrasti); settings: foliage application, AAH 320 g/ha, evaluated three weeks after application
Outline: as §3

windgrass [18] = assay: Test Example 5: herbicidal effect by foliage application, plastic box (Table 20, symbol L); type: in vivo, windgrass (Apera spica-venti); settings: foliage application, AAH 320 g/ha, evaluated three weeks after application
Outline: as §3

Italian ryegrass [19] = assay: Test Example 5: herbicidal effect by foliage application, plastic box (Table 20, symbol K); type: in vivo, Italian ryegrass (Lolium multiflorum); settings: foliage application, AAH 320 g/ha, evaluated three weeks after application
Outline: as §3

wild oat [20] = assay: Test Example 5: herbicidal effect by foliage application, plastic box (Table 20, symbol I); type: in vivo, wild oat (Avena fatua); settings: foliage application, AAH 320 g/ha, evaluated three weeks after application
Outline: as §3

barnyard grass [21] = assay: Test Example 3: herbicidal effect by foliage application, Wagner pot (Table 18, symbol H); type: in vivo, barnyard grass (Echinochloa crus-galli); settings: amount of applied herbicide 320 g/ha
Outline: as §1

persian speedwell [22] = assay: Test Example 5: herbicidal effect by foliage application, plastic box (Table 20, symbol R); type: in vivo, Persian speedwell (Veronica persica); settings: foliage application, AAH 320 g/ha, evaluated three weeks after application
Outline: as §3

false cleavers = assay: Test Example 4: herbicidal effect by soil treatment (Table 19, symbol Q); type: in vivo, false cleavers (Galium spurium); settings: amount of applied herbicide 320 g/ha
Outline: as §2

lambsquarters [23] = assay: Test Example 4: herbicidal effect by soil treatment (Table 19, symbol O); type: in vivo, lambsquarters (Chenopodium album); settings: amount of applied herbicide 320 g/ha
Outline: as §2

redroot pigweed [24] = assay: Test Example 5: herbicidal effect by foliage application, plastic box (Table 20, symbol N); type: in vivo, redroot pigweed (Amaranthus retroflexus); settings: foliage application, AAH 320 g/ha, evaluated three weeks after application
Outline: as §3

chickweed [25] = assay: Test Example 4: herbicidal effect by soil treatment (Table 19, symbol P); type: in vivo, common chickweed (Stellaria media); settings: amount of applied herbicide 320 g/ha
Outline: as §2

SMILES: Cc1nn(C)c(=O)c(-c2c(-c3cccc(O)c3)sc3ccc(F)cc23)c1O [2-336]
- herbicidal effect on E: rice flat sedge (rice flat sedge): 3 (Herbicidal rate of 40% or more and less than 70%)
- herbicidal effect on D: Chinese sprangletop (Chinese sprangletop): 0 (Herbicidal rate of 5% or less (almost no effect))
- herbicidal effect on G: green foxtail (green foxtail [1]): 5 (Herbicidal rate of 90% or more (almost completely withered))
- O: lambsquarters, herbicidal effect (criteria 0-5) (lambsquarters [2]): 4 (Herbicidal rate of 70% or more and less than 90%)
- herbicidal effect on I: wild oat (wild oat [3]): 0 (Herbicidal rate of 5% or less (almost no effect))
- F: southern crabgrass, herbicidal effect (criteria 0-5) (southern crabgrass [4]): 5 (Herbicidal rate of 90% or more (almost completely withered))
- herbicidal effect on R: persian speedwell (persian speedwell [5]): 5 (Herbicidal rate of 90% or more (almost completely withered))
- herbicidal effect on N: redroot pigweed (redroot pigweed [6]): 5 (Herbicidal rate of 90% or more (almost completely withered))
- P: chickweed, herbicidal effect (criteria 0-5) (chickweed [7]): 5 (Herbicidal rate of 90% or more (almost completely withered))
- herbicidal effect on F: southern crabgrass (southern crabgrass [8]): 3 (Herbicidal rate of 40% or more and less than 70%)
- herbicidal effect on H: barnyard grass (barnyard grass [9]): 4 (Herbicidal rate of 70% or more and less than 90%)
- herbicidal effect on L: windgrass (windgrass [10]): 0 (Herbicidal rate of 5% or less (almost no effect))
- H: barnyard grass, herbicidal effect (criteria 0-5) (barnyard grass [11]): 1 (Herbicidal rate of 5% or more and less than 20%)
- Herbicidal effect on A: late watergrass (grade 0-5) (late watergrass): 0 (Herbicidal rate of 5% or less (almost no effect))
- herbicidal effect on J: blackgrass (blackgrass [12]): 0 (Herbicidal rate of 5% or less (almost no effect))
- Herbicidal effect on C: oval-leafed pondweed (grade 0-5) (oval-leafed pondweed): 0 (Herbicidal rate of 5% or less (almost no effect))
- Herbicidal effect on B: Japanese bulrush (grade 0-5) (Japanese bulrush): 3 (Herbicidal rate of 40% or more and less than 70%)
- herbicidal effect on M: velvetleaf (velvetleaf [13]): 3 (Herbicidal rate of 40% or more and less than 70%)
- G: green foxtail, herbicidal effect (criteria 0-5) (green foxtail [14]): 5 (Herbicidal rate of 90% or more (almost completely withered))
- herbicidal effect on K: Italian ryegrass (Italian ryegrass [15]): 3 (Herbicidal rate of 40% or more and less than 70%)
- J: blackgrass, herbicidal effect (criteria 0-5) (blackgrass [16]): 3 (Herbicidal rate of 40% or more and less than 70%)
- M: velvetleaf, herbicidal effect (criteria 0-5) (velvetleaf [17]): 1 (Herbicidal rate of 5% or more and less than 20%)
- L: windgrass, herbicidal effect (criteria 0-5) (windgrass [18]): 4 (Herbicidal rate of 70% or more and less than 90%)
- K: Italian ryegrass, herbicidal effect (criteria 0-5) (Italian ryegrass [19]): 4 (Herbicidal rate of 70% or more and less than 90%)
- I: wild oat, herbicidal effect (criteria 0-5) (wild oat [20]): 0 (Herbicidal rate of 5% or less (almost no effect))
- herbicidal effect on H: barnyard grass (barnyard grass [21]): 5 (Herbicidal rate of 90% or more (almost completely withered))
- R: persian speedwell, herbicidal effect (criteria 0-5) (persian speedwell [22]): 5 (Herbicidal rate of 90% or more (almost completely withered))
- herbicidal effect on Q: false cleavers (false cleavers): 0 (Herbicidal rate of 5% or less (almost no effect))
- herbicidal effect on O: lambsquarters (lambsquarters [23]): 3 (Herbicidal rate of 40% or more and less than 70%)
- N: redroot pigweed, herbicidal effect (criteria 0-5) (redroot pigweed [24]): 5 (Herbicidal rate of 90% or more (almost completely withered))
- herbicidal effect on P: chickweed (chickweed [25]): 3 (Herbicidal rate of 40% or more and less than 70%)
